# Experimental data from patent US10745408B2, “Biologically active taxane analogs and methods of treatment by oral administration” (Tapestry Pharmaceuticals, Inc., priority 2007, dated 2020).
# Key:
# [1] = system: bovine microtubule protein; assay: In vitro ED50 MT polymerization study (DAPI fluorescence tubulin assay); type: biochemical; details: for ED50 Compound/ED50 Paclitaxel: ratio; for EC50: tubulin polymerization, 37° C. 30 minutes, maximum assembly = 25 μM paclitaxel
# Procedure: In Vitro ED50 MT Polymerization Study
# In this tubulin binding assay, microtubule protein (MTP) is used as a substrate. The assay contains bovine tubulin plus microtubule associated proteins (MAP). MTP is polymerized into microtubules in the presence of DAPI (4′,6′-diamidino-2-phenylindole), a fluorescent compound. DAPI binds to tubulin; when microtubules are formed and there is an enhancement of fluorescence. The microtubule formation is measured as a function of time, using a fluorescence plate reader. […] The method used is based on the procedure published by Donna M. Barron, et al, “Fluorescence-based high-throughput assay for antimicrotuble drugs” Analytical Biochemistry, 315: 49-56, 2003, which is incorporated by reference in its entirety. The excitation wavelength, in that assay, was set at 370 nm and the emission wavelength was set at 450 nm for the DAPI experiments.
# A Bio-Tek FL 600 microplate Fluorescence Reader was used to measure the relative level of fluorescence in the DAPI assay.
# Assays were conducted in 96-well plates. Each well contained a total volume of 0.1 mL consisting of PEM buffer (0.1 M Pipes, 1 mM EGTA, 1 mM MgCl2, pH 6.9), 0.2 mg bovine microtubule protein, and 10 μg of DAPI. […] The final DMSO concentration was 4%. The plates were incubated at 37° C. for 30 minutes and read in a fluorescence plate reader using an excitation wavelength of 360 nm and an emission wavelength of 460 nm. Fluorescence values were corrected for the sample without compound.
# Experiments were done twice in triplicate. Results were subsequently combined and fit to a non-linear regression program.
# [2] = system: U251 human CNS tumor cells (glioblastoma); details: temozolomide 80 mg/kg/dose po q4d×3
# Source text: Tumor Model: Each animal was implanted with one million U251 human CNS tumor cells from an in vitro cell line by ic injection with a 25 gauge needle. The day of tumor implantation (May 24, 2006) was designated as day 0. A sufficient number of mice were implanted so that animals with body weights in a range as narrow as possible were selected for the trial on the day of treatment initiation (day 1 after tumor implantation). Animals were randomly assigned to the treatment groups and individually identified by earmark codes.
# A portion of this solution was then diluted with the complete vehicle to achieve the lower dosing concentration of 1.2 mg/mL. […] Temozolomide (Temodar, Schering Corporation) was prepared on each day of injection in Klucel+tween 80 at a concentration of 4 mg/mL. Temozolomide was administered within 5 minutes of formulation on the basis of exact body weight using a volume of 0.2 mL/10 g of body weight.
# Data Collection: Animal health surveillance was conducted and mortality data were collected daily. The animals were weighed twice weekly starting with the first day of treatment.
# Study Duration: The study was terminated 100 days after tumor implantation. Any animal found moribund or whose body weight dropped below 14 g was euthanized prior to study termination.
# Parameters Evaluated: Number of 100-day survivors, median day of death, and the increase in lifespan based on median day of death and expressed as a percentage (% ILS), median survival time and the % ILS based on median survival time.
Structure (SMILES),ED50 Compound/ED50 Paclitaxel [1],EC50 [1] [µM],ILS based on median survival time [2] [%],median day of death [2] [days],median survival time [2] [days],survivors day 100 [2]
C/C(=C\c1csc(C)n1)[C@@H]1C[C@@H]2O[C@]2(C)CCC[C@H](C)[C@H](O)[C@@H](C)C(=O)C(C)(C)[C@@H](O)CC(=O)O1 [Epothilone B],1.11,3.31 ± 0.51,–,–,–,–
"Cn1nnc2c(C(N)=O)ncn2c1=O [temozolomide, Temozolomide]",–,–,400,48,50,100 = 1)
CC(=O)O[C@@]12CO[C@@H]1C[C@H](O)[C@@]1(C)C(=O)[C@H](O)C3=C(C)[C@@H](OC(=O)[C@H](O)[C@@H](NC(=O)OC(C)(C)C)c4ccccc4)C[C@@](O)([C@@H](OC(=O)c4ccccc4)[C@H]21)C3(C)C [Docetaxel],1.07,3.18 ± 0.45,–,–,–,–
